Assay results as given in publication PMC2643072 (Journal of medicinal chemistry, 2008).

Biological target: T1, porcine erythrocyte μ-calpain (Sus scrofa, UniProt P35750)
T1 sequence (P35750 1-714): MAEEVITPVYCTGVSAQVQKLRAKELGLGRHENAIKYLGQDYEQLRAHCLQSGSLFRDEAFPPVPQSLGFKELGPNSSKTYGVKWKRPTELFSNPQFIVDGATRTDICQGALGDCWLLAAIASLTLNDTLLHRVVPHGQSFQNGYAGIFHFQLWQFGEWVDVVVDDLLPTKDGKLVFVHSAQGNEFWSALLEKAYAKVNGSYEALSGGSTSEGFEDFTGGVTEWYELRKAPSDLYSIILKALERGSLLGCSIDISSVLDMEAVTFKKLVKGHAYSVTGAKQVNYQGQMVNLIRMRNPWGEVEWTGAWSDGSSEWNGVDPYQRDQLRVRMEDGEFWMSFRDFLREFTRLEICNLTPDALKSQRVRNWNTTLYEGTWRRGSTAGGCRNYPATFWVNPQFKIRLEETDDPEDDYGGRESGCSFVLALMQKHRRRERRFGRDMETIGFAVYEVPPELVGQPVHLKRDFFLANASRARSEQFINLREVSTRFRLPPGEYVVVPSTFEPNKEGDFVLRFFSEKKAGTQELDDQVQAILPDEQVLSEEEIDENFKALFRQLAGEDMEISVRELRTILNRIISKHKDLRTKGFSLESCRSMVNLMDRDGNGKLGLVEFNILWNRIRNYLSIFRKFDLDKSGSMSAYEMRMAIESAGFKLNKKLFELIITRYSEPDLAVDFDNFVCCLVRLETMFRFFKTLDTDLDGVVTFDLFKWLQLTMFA
T1 sequence (P04574 1-266 partner): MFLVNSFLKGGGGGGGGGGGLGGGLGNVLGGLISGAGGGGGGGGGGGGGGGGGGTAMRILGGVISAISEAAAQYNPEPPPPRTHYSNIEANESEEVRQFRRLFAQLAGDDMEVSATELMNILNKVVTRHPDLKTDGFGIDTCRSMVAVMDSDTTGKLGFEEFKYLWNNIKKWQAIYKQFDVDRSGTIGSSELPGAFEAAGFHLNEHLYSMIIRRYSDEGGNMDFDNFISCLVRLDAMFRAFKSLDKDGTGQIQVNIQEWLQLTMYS
Test: μ-Calpain inhibition assay
Assay type: biochemical

Compound	μ-calpain inhibitory potency relative to 2c (diphenylpropionyl (2d) vs diphenylacetyl (2c) N-terminal cap)	fold more potent than 2a and 2b (μ-calpain inhibition) (planar fluorene cap vs cyclohexyl (2a) and adamantyl (2b) caps)
CC(C)C[C@H](NC(=O)CC(c1ccccc1)c1ccccc1)C(=O)NC(Cc1ccccc1)C(=O)C(=O)O (stereo partly drawn) [Compound 2d, N-(3,3-Diphenylpropionyl)-L-leucyl-2-oxo-3(R,S)-amino-4-phenylbutanoic acid]	about twice as potent	–
CC(C)C[C@H](NC(=O)CC1c2ccccc2-c2ccccc21)C(=O)NC(Cc1ccccc1)C(=O)C(=O)O (stereo partly drawn) [Compound 2e, N-(9-Fluoreneacetyl)-L-leucyl-2-oxo-3(R,S)-amino-4-phenylbutanoic acid]	–	over 5 fold
